Test system: 129S6/SvEv mice
Test: Contextual fear conditioning (CFC), 3-shock; freezing
Format: in vivo
Settings: for CFC Training, Average Freezing, p (Fisher's LSD): FIG. 8C; for p, Freezing (%), CFC Re-exposure 2, (R,S)-ketamine vs. FENM / p, Freezing (%), CFC Re-exposure 2, Saline vs. drug: drug 5 min after re-exposure 1; for p, Freezing (%), CFC Re-exposure 2, (R,S)-ketamine vs. FENM: (R,S)-ketamine 30 mg/kg vs. FENM 20 mg/kg
Experimental: A 3-shock CFC paradigm was administered as previously described (45, 46). CFC was conducted in chambers obtained from Med Associates (St. Albans, Vt.), with internal dimensions of approximately 20 cm wide×16 cm deep×20.5 cm high. The chambers had metal walls on each side, clear plastic front and back walls and ceilings, and stainless-steel bars on the floor. A house light (CM1820 bulb, 28v, 100 mA) mounted directly above the chamber provided illumination. Each chamber was located inside a larger, insulated, plastic cabinet that provided protection from outside light and noise. Each cabinet contained a ventilation fan that was operated during the sessions. A paper towel dabbed with lemon solution was placed underneath the chamber floor. Mice were held outside the experimental room in their home cages prior to testing and transported to the conditioning apparatus individually in standard mouse cages Chambers were cleaned with 70% EtOH between each set of mice. Mice were placed into the conditioning chamber and received shocks at 180 s, 240 s, and 300 s (2 s duration, 0.75 mA). Fifteen seconds after the last shock, mice were removed from the chamber. Overall, the training session lasted 317 s. […] All sessions were scored for freezing using FreezeFrame4.

[1] = 5 min prior to CFC, (R,S)-ketamine 30 mg/kg, FENM 20 mg/kg, vs saline
[2] = (R,S)-ketamine (30 mg/kg) vs. FENM (20 mg/kg), FIG. 8D
[3] = (R,S)-ketamine (30 mg/kg) vs. FENM (20 mg/kg), FIG. 8F
[4] = Saline vs. FENM (20 mg/kg), FIG. 8D
[5] = Saline vs. FENM (20 mg/kg), FIG. 8F

NC12CC3CC(C1)CC(CCF)(C3)C2 [FENM, 1-amino-3-fluoroethyl-adamantane]
fear expression during CFC re-exposure (1 week prior to CFC, (R,S)-ketamine 30 mg/kg, FENM 20 and 30 mg/kg, vs saline): decreased fear expression
fear expression during re-exposure 2 (5 min after context re-exposure 1 (24 h before re-exposure 2), (R,S)-ketamine 30 mg/kg, FENM 20 mg/kg, vs saline): significantly decreased fear expression
fear expression during CFC re-exposure 1 [1]: but not FENM significantly decreased
fear expression during CFC re-exposure 2 [1]: significantly increased fear expression
freezing during CFC training [1]: but not FENM, increased freezing
CFC Training, Average Freezing, p (Fisher's LSD) ((R,S)-ketamine (30 mg/kg) vs. FENM (20 mg/kg)): 0.0029
CFC Re-exposure 1, Freezing Min 1 (%), p (Fisher's LSD) [2]: <0.0001
CFC Re-exposure 1, Freezing Min 2 (%), p (Fisher's LSD) [2]: <0.0001
CFC Re-exposure 1, Freezing Min 3 (%), p (Fisher's LSD) [2]: <0.0001
CFC Re-exposure 1, Freezing Min 4 (%), p (Fisher's LSD) [2]: <0.0001
CFC Re-exposure 1, Freezing Min 5 (%), p (Fisher's LSD) [2]: <0.0001
CFC Re-exposure 2, Freezing Min 1 (%), p (Fisher's LSD) [3]: 0.1684
CFC Re-exposure 2, Freezing Min 2 (%), p (Fisher's LSD) [3]: <0.0001
CFC Re-exposure 2, Freezing Min 3 (%), p (Fisher's LSD) [3]: <0.0001
CFC Re-exposure 2, Freezing Min 4 (%), p (Fisher's LSD) [3]: <0.0001
CFC Re-exposure 2, Freezing Min 5 (%), p (Fisher's LSD) [3]: <0.0001
CFC Re-exposure 1, Freezing (%), p (Fisher's LSD) ((R,S)-ketamine (30 mg/kg) vs. FENM (20 mg/kg), after ANOVA, FIG. 8E): <0.0001
CFC Re-exposure 2, Freezing (%), p (Fisher's LSD) ((R,S)-ketamine (30 mg/kg) vs. FENM (20 mg/kg), after ANOVA, FIG. 8G): <0.0001
CFC Re-exposure 1, Freezing (%), p (Fisher's LSD) ((R,S)-ketamine (30 mg/kg) vs. FENM (20 mg/kg), after RMANOVA, FIG. 8D): <0.0001
CFC Re-exposure 2, Freezing (%), p (Fisher's LSD) ((R,S)-ketamine (30 mg/kg) vs. FENM (20 mg/kg), after RMANOVA, FIG. 8F): <0.0001
CFC Training, Freezing, p (Fisher's LSD) ((R,S)-ketamine (30 mg/kg) vs. FENM (20 mg/kg), after RMANOVA, FIG. 8 cohort): 0.0029
Behavior: Fear (Extinction (5 min after re-exposure 1), dose 20 mg/kg): ↓
p, Freezing (%), CFC Re-exposure 2, (R,S)-ketamine vs. FENM (Fisher's LSD after ANOVA, FIG. 4G): 0.0248
p, Freezing (%), CFC Re-exposure 2, Saline vs. drug (Fisher's LSD after ANOVA, FENM 20 mg/kg, (R,S)-ketamine 30 mg/kg, FIG. 4G): 0.0281
p, Freezing (%), CFC Re-exposure 2, (R,S)-ketamine vs. FENM (Fisher's LSD after RMANOVA, FIG. 4F): 0.0248
p, Freezing (%), CFC Re-exposure 2, Saline vs. drug (Fisher's LSD after RMANOVA, FENM 20 mg/kg, ketamine 30 mg/kg, FIG. 4F): 0.0281
p, Freezing (%), CFC Training, Saline vs. drug (Fisher's LSD after RMANOVA, drug 5 min before CFC, (R,S)-ketamine 30 mg/kg, FENM dose lies beyond the rows shown, FIG. 8B): 0.9251
Behavior: Fear (Prophylactic (5 min before stress), dose 20 mg/kg): ↑
Behavior: Fear (Prophylactic (7 days before stress), dose 20 mg/kg): ↓
Behavior: Fear (Prophylactic (7 days before stress), dose 30 mg/kg): ↓
CFC Training, Average Freezing, p (Fisher's LSD) (Saline vs. FENM (20 mg/kg)): 0.9251
CFC Re-exposure 1, Freezing Min 1 (%), p (Fisher's LSD) [4]: 0.0008
CFC Re-exposure 1, Freezing Min 2 (%), p (Fisher's LSD) [4]: 0.0075
CFC Re-exposure 1, Freezing Min 3 (%), p (Fisher's LSD) [4]: 0.1384
CFC Re-exposure 1, Freezing Min 4 (%), p (Fisher's LSD) [4]: 0.7601
CFC Re-exposure 1, Freezing Min 5 (%), p (Fisher's LSD) [4]: 0.4751
CFC Re-exposure 2, Freezing Min 1 (%), p (Fisher's LSD) [5]: 0.5432
CFC Re-exposure 2, Freezing Min 2 (%), p (Fisher's LSD) [5]: 0.0173
CFC Re-exposure 2, Freezing Min 3 (%), p (Fisher's LSD) [5]: 0.0053
